According to the supplement of paper PMC10307832:

What was measured:
Assay in all cases: relative viability (nuclei count vs DMSO), 5 days (fraction); higher = more cells survive
[1] = compound: N=C1NC(=O)/C(=C/c2ccc(O)cc2)S1 [Mirin] + CS(=O)(=O)CCNCc1ccc(-c2ccc3ncnc(Nc4ccc(OCc5cccc(F)c5)c(Cl)c4)c3c2)o1 [Lapatinib] (partner 2 µM)
In short: (§1)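 After 5 days of treatment, lung cancer cells in 1536-well plates were fixed and stained in a single step (final 0.05% Triton X-100, 1% formaldehyde, 1 ug/ml Hoechst) and their nuclei counted on 4× images. Treatment had been applied by pin tool the day after seeding as one drug alone or as a fixed anchor-drug dose with five library-drug doses (not always all listed) in √10 steps. Relative viability is the nuclei count of treated wells divided by that of vehicle wells, and values are medians of duplicate plates.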

[2] = compound: CCn1c(-c2nonc2N)nc2cnc(Oc3cccc(NC(=O)c4ccc(OCCN5CCOCC5)cc4)c3)cc21 + CCNC(=O)c1noc(-c2cc(C(C)C)c(O)cc2O)c1-c1ccc(CN2CCOCC2)cc1 [Luminespib] (partner 0.01 µM)
In short: as §1

[3] = compound: CCn1c(-c2nonc2N)nc2cnc(Oc3cccc(NC(=O)c4ccc(OCCN5CCOCC5)cc4)c3)cc21 + O=C(c1cc(Cc2n[nH]c(=O)c3ccccc23)ccc1F)N1CCN(C(=O)C2CC2)CC1 [Olaparib] (partner 8 µM)
In short: as §1

[4] = compound: N=C1NC(=O)/C(=C/c2ccc(O)cc2)S1 [Mirin] + Nc1ncn([C@H]2C[C@H](O)[C@@H](CO)O2)c(=O)n1 [Decitabine] (partner 2 µM)
In short: as §1

Row | Cell Line | relative viability ([1]; first compound 0.25 µM) | relative viability ([1]; first compound 0.7906 µM) | relative viability ([1]; first compound 2.5 µM) | relative viability ([1]; first compound 7.906 µM) | relative viability ([1]; first compound 25 µM) | relative viability ([2]; first compound 0.04 µM) | relative viability ([2]; first compound 0.1265 µM) | relative viability ([2]; first compound 0.4 µM) | relative viability ([2]; first compound 1.265 µM) | relative viability ([2]; first compound 4 µM) | relative viability ([3]; first compound 0.04 µM) | relative viability ([3]; first compound 0.1265 µM) | relative viability ([3]; first compound 0.4 µM) | relative viability ([3]; first compound 1.265 µM) | relative viability ([3]; first compound 4 µM) | relative viability ([4]; first compound 0.25 µM) | relative viability ([4]; first compound 0.7906 µM) | relative viability ([4]; first compound 2.5 µM) | relative viability ([4]; first compound 7.906 µM) | relative viability ([4]; first compound 25 µM)
1 | 201T | 0.98 | 0.964 | 1.01 | 1.09 | 1.08 | 1.1 | 1.02 | 1.05 | 1.06 | 1.07 | 0.859 | 0.933 | 0.817 | 0.812 | 0.769 | 0.877 | 0.885 | 0.842 | 0.939 | 1
2 | A549 | 0.914 | 1.15 | 1.04 | 1.08 | 0.598 | – | – | – | – | – | 0.499 | 0.343 | 0.122 | 0.0557 | 0.102 | 0.311 | 0.298 | 0.278 | 0.305 | 0.301
3 | A-427 | 1.12 | – | 1.17 | 1.05 | 1.08 | 1.14 | 0.974 | 0.627 | 0.416 | 0.524 | 0.704 | 0.685 | 0.601 | 0.198 | 0.264 | 0.554 | 0.479 | 0.546 | 0.521 | 0.514
4 | ABC-1 | 1.04 | 1.33 | 1.17 | 1.16 | 0.95 | 0.633 | 0.617 | 0.367 | 0.254 | 0.248 | 0.632 | 0.589 | 0.74 | 0.386 | 0.458 | 1.09 | 0.898 | 1.16 | 0.883 | 0.715
5 | BEN | 0.507 | 0.942 | 0.721 | 0.656 | 0.457 | 0.496 | 0.235 | 0.158 | 0.163 | 0.249 | 1.29 | 0.894 | 0.714 | 0.368 | 0.415 | 0.553 | 0.711 | 0.661 | 0.67 | 0.522
6 | CAL-12T | 0.702 | – | 0.92 | – | 0.238 | 0.687 | 0.444 | 0.287 | 0.379 | 0.286 | 0.825 | 0.795 | 0.73 | 0.635 | 0.539 | – | – | – | – | –
7 | COR-L23 | 0.796 | 1.08 | 0.907 | 0.999 | 0.914 | 0.62 | 0.463 | 0.447 | 0.15 | 0.106 | 0.346 | 0.301 | 0.269 | 0.145 | 0.124 | 0.447 | 0.505 | 0.466 | 0.426 | 0.409
8 | COR-L 105 | 0.346 | 0.274 | 0.392 | 0.367 | 0.306 | 0.657 | 0.282 | 0.592 | 0.445 | 0.247 | 0.631 | 0.617 | 0.699 | 0.554 | 0.457 | 0.596 | 0.698 | 0.744 | 0.667 | 0.63
9 | Calu-6 | 1.11 | 1.12 | 1.06 | 1.01 | 0.983 | – | – | – | – | – | 0.569 | 0.528 | 0.541 | 0.381 | 0.328 | – | – | – | – | –
10 | ChaGo-K-1 | – | – | – | – | – | 0.586 | 0.691 | 0.706 | 0.48 | 0.454 | 0.512 | 0.443 | 0.443 | 0.399 | 0.387 | 0.412 | 0.476 | 0.545 | 0.516 | 0.434
11 | EBC-1 | 0.203 | 0.208 | 0.219 | 0.201 | 0.221 | – | – | – | – | – | 0.777 | 0.716 | 0.637 | 0.492 | 0.535 | – | – | – | – | –
12 | EKVX | 0.213 | 0.192 | 0.23 | 0.215 | 0.256 | 1.03 | 0.807 | 0.898 | 0.765 | 0.645 | 1.18 | 0.856 | 0.802 | 0.635 | 0.79 | 0.317 | 0.338 | 0.395 | 0.361 | 0.26
13 | EMC-BAC-2 | 0.955 | 0.902 | 0.954 | 0.918 | 0.88 | 1.13 | 1.16 | 1.1 | 0.863 | 0.662 | 0.474 | 0.42 | 0.38 | 0.27 | 0.292 | 0.997 | 1.02 | 0.977 | 0.949 | 1.09
14 | EPLC-272H | 0.9 | – | 0.886 | 0.83 | 0.664 | 0.263 | 0.697 | 0.265 | 0.26 | 0.286 | 1.09 | 0.928 | 0.827 | 0.449 | 0.365 | 0.33 | – | 0.39 | 0.34 | 0.28
15 | H3255 | 0.25 | 0.307 | 0.236 | 0.241 | 0.218 | 1.02 | 0.819 | 0.735 | 0.571 | 0.599 | 0.532 | 0.542 | 0.501 | 0.364 | 0.383 | 0.595 | 0.577 | 0.649 | 0.467 | 0.758
16 | HARA | 0.836 | 0.747 | 0.742 | 0.652 | 0.665 | 0.839 | 1.18 | 0.682 | 0.801 | 0.678 | 0.607 | 0.965 | 0.654 | 0.294 | 0.139 | 0.768 | – | 0.644 | 0.653 | 0.442
17 | HCC-15 | 0.874 | 0.546 | 0.9 | 0.803 | 0.79 | 0.301 | 0.227 | 0.376 | 0.207 | 0.249 | 0.745 | 0.737 | 0.766 | 0.581 | 0.542 | 0.612 | 0.517 | 0.618 | 0.59 | 0.505
18 | HCC-44 | 1.07 | 1.12 | 1.05 | 1.04 | 1.28 | 0.772 | 0.974 | 0.478 | 0.17 | 0.126 | 1.07 | 0.996 | 0.945 | 0.999 | 0.802 | 0.938 | 0.958 | 0.99 | 0.922 | 1.01
